Reference: patent US12673954B2 (BRISTOL-MYERS SQUIBB COMPANY, priority 2021, dated 2026)
Where two headings read alike, the source gives them in different places.

Assays:
[1] = test system: IRF pathway, THP1-Dual™ cells; experiment: STING reporter assay in THP1-Dual cells, IRF pathway (Lucia luciferase, QUANTI-Luc); type: cell-based, human; settings: THP1-Dual cells, 10% human plasma, 20 hours, Lucia luciferase, 100% activation = 100 μM cGAMP, read-out: IRF (EC50 μM)
Outline: (§1)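 Activation normalised between DMSO-only baseline and 100 μM cGAMP maximum, after 20 h compound exposure (starting at 100 μM final) at 37° C, 5% CO2. Supernatant SEAP (QUANTI-Blue, OD620) reports NF-κB; secreted luciferase (QUANTI-Luc, RLU at 5 min) reports IRF.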

[2] = test system: NF-κB pathway, THP1-Dual™ cells; experiment: STING reporter assay in THP1-Dual cells, NF-κB pathway (SEAP, QUANTI-Blue); type: cell-based, human; settings: THP1-Dual cells, 10% human plasma, 20 hours, SEAP, 100% activation = 100 μM cGAMP, read-out: NFkB (EC50 μM)
Outline: as §1

Row | EC50 [1] [µM] | EC50 [2] [µM] | EC50 ([1]; Homo sapiens, THP1-Dual, 20 h) [µM] | EC50 ([2]; Homo sapiens, THP1-Dual, 20 h) [µM] | SMILES
1 | 8 | 9.8 | – | – | COC(=O)c1cc(Cl)cc2cc(CNC(=O)c3cnc4cccnn34)oc12 [Example 52, Methyl 5-chloro-2-((imidazo[1,2-b]pyridazine-3-carboxamido)methyl) benzofuran-7-carboxylate]
2 | – | – | 63 | 37 | COC(=O)c1cc(O)cc2cc(CN3Cc4ccncc4C3=O)oc12 [EXAMPLE 104, Methyl 5-hydroxy-2-((3-oxo-1,3-dihydro-2H-pyrrolo[3,4-c]pyridin-2-yl)methyl)benzofuran-7-carboxylate]
3 | – | – | 1.1 | 1.1 | O=C(OC1CCC1)c1cc(F)cc2cc(CNC(=O)c3cnn4cccnc34)oc12 [EXAMPLE 234, Cyclobutyl 5-fluoro-2-((pyrazolo[1,5-a]pyrimidine-3-carboxamido)methyl)benzofuran-7-carboxylate]
4 | – | – | 3.3 | 3.5 | CCOc1ncncc1C(=O)NCc1cc2cc(Cl)cc(C(=O)OC)c2o1 [Example 74, Methyl 5-chloro-2-((4-ethoxypyrimidine-5-carboxamido)methyl)benzofuran-7-carboxylate]
5 | – | – | 2.1 | 2.5 | CSC(=O)c1cc(F)cc2cc(Cn3cnc4ccncc4c3=O)oc12 [EXAMPLE 385, S-Methyl 5-fluoro-2-((4-oxopyrido[4,3-d]pyrimidin-3(4H)-yl)methyl)benzofuran-7-carbothioate]
6 | 9.8 | 13 | – | – | CC(OC(=O)c1cc(Cl)cc2cc(CN3CCc4ccncc4C3=O)oc12)C(F)(F)F (stereo not shown) [EXAMPLE 337, 1,1,1-Trifluoropropan-2-yl 5-chloro-2-((1-oxo-3,4-dihydro-2,7-naphthyridin-2(1H)-yl)methyl)benzofuran-7-carboxylate]
7 | – | – | > 33 | 1.3 | COC(=O)c1cc(F)cc2cc(CNC(=O)c3cnc4cccnn34)oc12 [EXAMPLE 41, Methyl 5-fluoro-2-((imidazo[1,2-b]pyridazine-3-carboxamido)methyl)benzofuran-7-carboxylate]
8 | – | – | 1.1 | 1 | O=C(OC(CF)CF)c1cc(Cl)cc2cc(CNC(=O)c3cnn4cccnc34)oc12 [EXAMPLE 246, 1,3-Difluoropropan-2-yl 5-chloro-2-((pyrazolo[1,5-a]pyrimidine-3-carboxamido)methyl)benzofuran-7-carboxylate]
9 | – | – | 0.8 | 1.1 | COC(=O)c1cc(Br)cc2cc(CNC(=O)c3cnn4cccnc34)oc12 [Example 80, Methyl 5-bromo-2-((pyrazolo[1,5-a]pyrimidine-3-carboxamido)methyl)benzofuran-7-carboxylate]
10 | – | – | 5.7 | 6.3 | COC(=O)c1cccc2cc(CN3CCc4ccncc4C3=O)oc12 [EXAMPLE 5, Methyl 2-((1-oxo-3,4-dihydro-2,7-naphthyridin-2(1H)-yl)methyl)benzofuran-7-carboxylate]
11 | – | – | 79 | 86 | O=C(OCC(F)(F)C(F)F)c1cccc2cc(CN3CCc4ccncc4C3=O)oc12 [EXAMPLE 213, 2,2,3,3-Tetrafluoropropyl 2-((1-oxo-3,4-dihydro-2,7-naphthyridin-2(1H)-yl)methyl)benzofuran-7-carboxylate]
12 | – | – | 6.7 | 8.5 | COC(=O)Cc1cc(F)cc2cc(CNC(=O)c3cnn4cccnc34)oc12 [Example 47, Methyl 2-(5-fluoro-2-((pyrazolo[1,5-a]pyrimidine-3-carboxamido)methyl)benzofuran-7-yl)acetate]
13 | – | – | 0.93 | 1.1 | COC(=O)c1cc(Cl)cc2cc(CNC(=O)c3cncc4cccnc34)oc12 [Example 50, Methyl 2-((1,6-naphthyridine-8-carboxamido)methyl)-5-chlorobenzofuran-7-carboxylate]
14 | – | – | 9.8 | 9.9 | CCOC(=O)c1cccc2cc(CN3CCc4ccncc4C3=O)oc12 [EXAMPLE 205, Ethyl 2-((1-oxo-3,4-dihydro-2,7-naphthyridin-2(1H)-yl)methyl)benzofuran-7-carboxylate]
15 | – | – | 1.2 | 1.5 | COC(=O)c1cc(C)cc2cc(CNC(=O)c3cncc4[nH]cnc34)oc12 [Example 91, Methyl 2-((3H-imidazo[4,5-c]pyridine-7-carboxamido)methyl)-5-methylbenzofuran-7-carboxylate]
16 | – | – | 4.7 | 3.4 | COC(=O)c1cc(C#N)cc2cc(CNC(=O)c3cnn4cccnc34)oc12 [EXAMPLE 105, Methyl 5-cyano-2-((pyrazolo[1,5-a]pyrimidine-3-carboxamido)methyl)benzofuran-7-carboxylate]

Row | EC50 [1] [µM] | EC50 [2] [µM] | EC50 ([1]; Homo sapiens, THP1-Dual, 20 h) [µM] | EC50 ([2]; Homo sapiens, THP1-Dual, 20 h) [µM] | SMILES
17 | – | – | 2.1 | 1.5 | COC(=O)c1cc(C)cc2cc(C(C)NC(=O)c3cnn4cccnc34)oc12 (single isomer, unassigned) [Example 97, Methyl-5-methyl-2-(1-(pyrazolo[1,5-a]pyrimidine-3-carboxamido)ethyl)benzofuran-7-carboxylate]
18 | – | – | 1.5 | 1.5 | COC(=O)c1cc(F)cc2cc([C@H](C)NC(=O)c3cnn4cccnc34)oc12 [EXAMPLE 46, Methyl (S)-5-fluoro-2-(1-(pyrazolo[1,5-a]pyrimidine-3-carboxamido)ethyl)benzofuran-7-carboxylate]
19 | – | – | 51 | 92 | COC(=O)c1cccc2cc(CN3Cc4c(F)cncc4C3=O)oc12 [EXAMPLE 3, Methyl 2-((7-fluoro-3-oxo-1,3-dihydro-2H-pyrrolo[3,4-c]pyridin-2-yl)methyl)benzofuran-7-carboxylate]
20 | 25 | 30 | – | – | CC(OC(=O)c1cccc2cc(CN3CCc4ccncc4C3=O)oc12)C(F)(F)F (single isomer, unassigned) [EXAMPLE 308, 1,1,1-Trifluoropropan-2-yl 2-((1-oxo-3,4-dihydro-2,7-naphthyridin-2(1H)-yl)methyl)benzo-furan-7-carboxylate]
21 | – | – | 0.3 | 0.37 | COC(=O)c1cc(C)cc2c(Cl)c(CNC(=O)c3cncc4cccnc34)oc12 [EXAMPLE 118, methyl 2-((1,6-naphthyridine-8-carboxamido)methyl)-3-chloro-5-methylbenzofuran-7-carboxylate]
22 | 3.2 | 2.5 | – | – | CC(CC(F)(F)F)OC(=O)c1cc(Cl)cc2cc(CNC(=O)c3cnn4cccnc34)oc12 (single isomer, unassigned) [EXAMPLE 336, 4,4,4-Trifluorobutan-2-yl 5-chloro-2-((pyrazolo[1,5-a]pyrimidine-3-carboxamido)methyl)benzofuran-7-carboxylate]
23 | – | – | 1.5 | 1.7 | COC(=O)c1cc(Cl)cc2cc([C@H](C)NC(=O)c3cnn4cccnc34)oc12 [Example 79, Methyl (S)-5-chloro-2-(1-(pyrazolo[1,5-a]pyrimidine-3-carboxamido)ethyl)benzofuran-7-carboxylate]
24 | – | – | 12 | 10 | CCc1cc(C(=O)OC)c2oc(CNC(=O)c3cnn4cccnc34)cc2c1 [EXAMPLE 101, Methyl 5-ethyl-2-((pyrazolo[1,5-a]pyrimidine-3-carboxamido)methyl)benzofuran-7-carboxylate]
25 | – | – | 79 | 94 | Cc1cc(C(=O)O)c2oc(CNC(=O)c3cncc4cccnc34)cc2c1 [EXAMPLE 192, 2-((1,6-naphthyridine-8-carboxamido)methyl)-5-methylbenzofuran-7-carboxylic acid]
26 | – | – | 0.43 | 0.52 | Cc1cc(C(=O)OC(CF)CF)c2oc(CNC(=O)c3cnn4cccnc34)c(Cl)c2c1 [EXAMPLE 302, 1,3-Difluoropropan-2-yl 3-chloro-5-methyl-2-((pyrazolo[1,5-a]pyrimidine-3-carboxamido)methyl)benzofuran-7-carboxylate]
27 | – | – | 108 | 138 | Cc1cc(C(=O)O)c2oc(C(C)NC(=O)c3cnn4cccnc34)cc2c1 (racemic) [EXAMPLE 161, 5-Methyl-2-(1-(pyrazolo[1,5-a]pyrimidine-3-carboxamido)ethyl)benzofuran-7-carboxylic acid (racemic)]
28 | – | – | 12 | 12 | N#Cc1cc(C(=O)OCC(F)(F)F)c2oc(CNC(=O)c3cnn4cccnc34)cc2c1 [EXAMPLE 282, 2,2,2-Trifluoroethyl 5-cyano-2-((pyrazolo[1,5-a]pyrimidine-3-carboxamido)methyl)benzofuran-7-carboxylate]
29 | – | – | 1 | 0.82 | CCOC(=O)OCOC(=O)c1cc(Cl)cc2cc(CNC(=O)c3cnn4cccnc34)oc12 [EXAMPLE 260, ((Ethoxycarbonyl)oxy)methyl 5-chloro-2-((pyrazolo[1,5-a]pyrimidine-3-carboxamido)methyl)benzofuran-7-carboxylate]
30 | – | – | 6.1 | 6.5 | O=C(OCC(F)(F)F)c1cc(F)cc2cc(CN3CCc4ccncc4C3=O)oc12 [EXAMPLE 228, 2,2,2-Trifluoroethyl 5-fluoro-2-((1-oxo-3,4-dihydro-2,7-naphthyridin-2(1H)-yl)methyl)benzofuran-7-carboxylate]
31 | – | – | 2.8 | 3.4 | Cc1ccc(C(=O)OCC(F)(F)F)c2oc(Cn3cnc4ccncc4c3=O)cc12 [EXAMPLE 360]
32 | 1.6 | 2.5 | – | – | CC(OC(=O)c1cc(Br)cc2cc(CNC(=O)c3cnn4cccnc34)oc12)C(F)(F)F (single isomer, unassigned) [EXAMPLE 341, 1,1,1-Trifluoropropan-2-yl 5-bromo-2-((pyrazolo[1,5-a]pyrimidine-3-carboxamido)methyl)benzofuran-7-carboxylate]
